Assay results reported in patent publication US8133294B2, “Buffered amino alcohol solutions of N-(n-butyl)thiophosphoric triamide (NBPT) and urea fertilizers using such solutions as urease inhibitors” (Whitehurst Associates, Inc., priority 2009, dated 2012).
Entries after “also recorded” stand apart in the source; their conditions may differ.

Columns and labels:
[1] = background description; cited from earlier work
[2] = Sulfide test: NBPT containing buffered mixture added to copper (II) containing ARBORITE Binder 75, colour change; type: physicochemical
Description: As another example of the instability of this formulation, the buffered NBPT containing mixture was added to ARBORITRE® Binder 75 which is an ethanolamine borate containing copper (II) ions at about 0.75%.
[…]; The NBPT containing buffered mixture was then added to ARBORITE® Binder 75.

[3] = Solubility limit of NBPT in buffered amino alcohol/carboxylic acid mixture; type: physicochemical; details: 12% NBPT in MEA/acetic acid buffered mixture, pH 9.2 (Example 3)
[4] = Stability of NBPT in the buffered mixture on standing (yellowing, hydrogen sulfide odor as signs of decomposition); type: physicochemical

Structure (SMILES): CCCCNP(N)(N)=S [NBPT, N-(n-butyl)-thiophosphoric triamide]
- Hydrolytic and thermal stability [1]: undergoes hydrolysis and is thermally unstable
- Colour change on addition to ARBORITE Binder 75 (sulfides of copper (II)) ([2]; 20% NBPT in TEA/acetic acid buffered mixture, pH 7.6 (Example 6)): lost its characteristic blue color and appeared green
- Colour change on addition to ARBORITE Binder 75 (sulfides of copper (II)) ([2]; 25% NBPT in MIPA/acetic acid buffered mixture, pH 9.0 (Example 13)): No reaction characteristic of the formation of sulfide salts of copper (II) was observed
- Colour change on addition to ARBORITE Binder 75 (sulfides of copper (II)) ([2]; NBPT in MEA/acetic acid buffered mixture, pH 7.0 (Example 1)): immediately turned brown
- Crystallization of the NBPT solution when chilled [3]: slight crystallization when chilled
- Decomposition of NBPT in the buffered mixture over time ([4]; 12% NBPT in MEA/acetic acid buffered mixture, pH 9.2 (Example 3)): no signs of yellowing were observed
- Decomposition of NBPT in the buffered mixture over time ([4]; MEA/acetic acid buffered mixture, pH 7.0 (Examples 1 and 2)): turned yellow over time and emitted an odor of hydrogen sulfide; also recorded: caused hydrolysis of the NBPT and released sulfides
- Decomposition of NBPT in the buffered mixture over time ([4]; TEA/acetic acid buffered mixture, pH 7.6 (Example 6)): displayed a tendency to yellow over time
